Experimental data as given in patent publication US4608373A, “Cephem compounds” (Yamanouchi Pharmaceutical Co., Ltd., priority 1982, dated 1986).
Converted amounts (≈) assume the structure as drawn. Where a name gives a salt, the structure may show the parent alone.

Legend:
Assay type in all cases: cell-based
E. coli Ebara = test: Antibacterial activity (MIC), E. coli Ebara; details: Escherichia coli; E. coli Ebara; read-out: MIC (minimum effective inhibitory concentration)
Text: (§1) Antibacterial activities (minimum effective inhibitory concentrations) of the compounds of formula I are shown in the following table in comparison with those of cefatazidime having the structure [drawing 5] and cefmenoxime having the structure [drawing 6]

Staph. aureus Smith = test: Antibacterial activity (MIC), Staph. aureus Smith; details: Staphylococcus aureus, read-out: MIC (minimum effective inhibitory concentration)
Text: as §1

[1] = tested on: Kleb. pneumoniae ATCC 10031; test: Antibacterial activity (MIC), Kleb. pneumoniae ATCC 10031; details: Klebsiella pneumoniae, ATCC10031, read-out: MIC (minimum effective inhibitory concentration)
Text: as §1

Serr. marcescens IID 620 = test: Antibacterial activity (MIC), Serr. marcescens IID 620; details: Serratia marcescens, IID620; Serr. marcescens IID 620; read-out: MIC (minimum effective inhibitory concentration)
Text: as §1

Staph. aureus Terashima = test: Antibacterial activity (MIC), Staph. aureus Terashima; details: Staphylococcus aureus, read-out: MIC (minimum effective inhibitory concentration)
Text: as §1

[2] = tested on: Ps. aeruginosa NCTC 10490; test: Antibacterial activity (MIC), Ps. aeruginosa NCTC 10490; details: Pseudomonas aeruginosa, NCTC10490, read-out: MIC (minimum effective inhibitory concentration)
Text: as §1

Ps. aeruginosa IID 5142 = test: Antibacterial activity (MIC), Ps. aeruginosa IID 5142; details: Pseudomonas aeruginosa, IID5142, read-out: MIC (minimum effective inhibitory concentration)
Text: as §1

Ent. cloacae V-8 = test: Antibacterial activity (MIC), Ent. cloacae V-8; details: Enterobacter cloacae, V8, read-out: MIC (minimum effective inhibitory concentration)
Text: as §1

Staph. aureus ATCC 6538P = test: Antibacterial activity (MIC), Staph. aureus ATCC 6538P; details: Staphylococcus aureus, ATCC6538P, read-out: MIC (minimum effective inhibitory concentration)
Text: as §1

[3] = tested on: Ent. aerogenes ATCC 13048 (MS-1); test: Antibacterial activity (MIC), Ent. aerogenes ATCC 13048 (MS-1); details: Klebsiella aerogenes, ATCC13048, read-out: MIC (minimum effective inhibitory concentration)
Text: as §1

Proteus morgani IID 602 = test: Antibacterial activity (MIC), Proteus morgani IID 602; details: Proteus morgani IID 602; read-out: MIC (minimum effective inhibitory concentration)
Text: as §1

Row | Compound | MIC (E. coli Ebara) | MIC (Staph. aureus Smith) | MIC [1] | MIC (Serr. marcescens IID 620) | MIC (Staph. aureus Terashima) | MIC [2] | MIC (Ps. aeruginosa IID 5142) | MIC (Ent. cloacae V-8) | MIC (Staph. aureus ATCC 6538P) | MIC [3] | MIC (Proteus morgani IID 602)
1 | Nc1nc(CO/N=C(\C(=O)NC2C(=O)N3C(C(=O)[O-])=C(C[n+]4cccc(S(=O)(=O)O)c4)CSC23)c2csc(N)n2)cs1 (stereo not drawn) [Example 17, (Z)-7-{α-(2-amino-4-thiazolyl)-α-[(2-amino-4-thiazolyl)methoxyimino]acetamido}-3-(3-sulfonate-1-pyridiniomethyl)-3-cephem-4-carboxylate mono-sodium salt] | 12.5 µg/mL | 6.25 µg/mL | 0.39 µg/mL | 0.39 µg/mL | 12.5 µg/mL | 1.56 µg/mL | 25 µg/mL | 6.25 µg/mL | 6.25 µg/mL | 3.13 µg/mL | 1.56 µg/mL
2 | Nc1nc(CO/N=C(\C(=O)NC2C(=O)N3C(C(=O)[O-])=C(C[n+]4ccccc4)CSC23)c2csc(N)n2)cs1 (stereo not drawn) [Example 8, (Z)-7-{α-(2-amino-4-thiazolyl)-α-[(2-amino-4-thiazolyl)methoxyimino]acetamido}-3-(1-pyridiniummethyl)-3-cephem-4-carboxylate] | 0.78 µg/mL (≈ 1.36 µM) | 0.78 µg/mL (≈ 1.36 µM) | ≤ 0.2 µg/mL | 0.78 µg/mL (≈ 1.36 µM) | 1.56 µg/mL (≈ 2.72 µM) | ≤ 0.2 µg/mL | 3.13 µg/mL (≈ 5.47 µM) | 6.25 µg/mL (≈ 10.9 µM) | 1.56 µg/mL (≈ 2.72 µM) | 1.56 µg/mL (≈ 2.72 µM) | 0.78 µg/mL (≈ 1.36 µM)
3 | Nc1nc(CO/N=C(\C(=O)NC2C(=O)N3C(C(=O)[O-])=C(C[n+]4cccc(CNC=O)c4)CS[C@H]23)c2csc(N)n2)cs1 (stereo partly drawn) [Example 22, (Z)-7-{α-(2-amino-4-thiazolyl)-α-[(2-amino-4-thiazolyl)methoxyimino]acetamido}-3-(3-formamidomethyl-1-pyridiniomethyl)-3-cephem-4-carboxylate] | 1.56 µg/mL (≈ 2.48 µM) | 1.56 µg/mL (≈ 2.48 µM) | ≤ 0.2 µg/mL | 0.78 µg/mL (≈ 1.24 µM) | 3.13 µg/mL (≈ 4.97 µM) | 1.56 µg/mL (≈ 2.48 µM) | 12.5 µg/mL (≈ 19.9 µM) | 6.25 µg/mL (≈ 9.93 µM) | 1.56 µg/mL (≈ 2.48 µM) | 3.13 µg/mL (≈ 4.97 µM) | 1.56 µg/mL (≈ 2.48 µM)
4 | NC(=O)c1cc[n+](CC2=C(C(=O)[O-])N3C(=O)C(NC(=O)/C(=N\OCc4csc(N)n4)c4csc(N)n4)C3SC2)cc1 (stereo not drawn) [Example 9, (Z)-7-{α-(2-amino-4-thiazolyl)-α-[(2-amino-4-thiazolyl)methoxyimino]acetamido}-3-(4-carbamoyl-1-pyridiniummethyl)-3-cephem-4-carboxylate] | ≤ 0.2 µg/mL | 1.56 µg/mL (≈ 2.53 µM) | ≤ 0.2 µg/mL | 0.78 µg/mL (≈ 1.27 µM) | 1.56 µg/mL (≈ 2.53 µM) | 0.39 µg/mL (≈ 0.633 µM) | 6.25 µg/mL (≈ 10.2 µM) | 3.13 µg/mL (≈ 5.08 µM) | 1.56 µg/mL (≈ 2.53 µM) | 1.56 µg/mL (≈ 2.53 µM) | 0.39 µg/mL (≈ 0.633 µM)

The next lines start with the values.

Row | MIC (E. coli Ebara) | MIC (Staph. aureus Smith) | MIC [1] | MIC (Serr. marcescens IID 620) | MIC (Staph. aureus Terashima) | MIC [2] | MIC (Ps. aeruginosa IID 5142) | MIC (Ent. cloacae V-8) | MIC (Staph. aureus ATCC 6538P) | MIC [3] | MIC (Proteus morgani IID 602) | Compound
5 | ≤ 0.2 µg/mL | 0.39 µg/mL (≈ 0.664 µM) | ≤ 0.2 µg/mL | ≤ 0.2 µg/mL | 0.39 µg/mL (≈ 0.664 µM) | 0.39 µg/mL (≈ 0.664 µM) | 6.25 µg/mL (≈ 10.6 µM) | 1.56 µg/mL (≈ 2.65 µM) | 0.39 µg/mL (≈ 0.664 µM) | 0.78 µg/mL (≈ 1.33 µM) | 0.39 µg/mL (≈ 0.664 µM) | Nc1cc[n+](CC2=C(C(=O)[O-])N3C(=O)C(NC(=O)/C(=N\OCc4csc(N)n4)c4csc(N)n4)[C@H]3SC2)cc1 (stereo partly drawn) [Example 21, 7-{α-(2-amino-4-thiazolyl)-α-[(2-amino-4-thiazolyl)methoxyimino]acetamido}-3-(4-amino-1-pyridiniomethyl)-3-cephem-4-carboxylate]
6 | ≤ 0.2 µg/mL | 1.56 µg/mL (≈ 2.59 µM) | ≤ 0.2 µg/mL | ≤ 0.2 µg/mL | 1.56 µg/mL (≈ 2.59 µM) | ≤ 0.2 µg/mL | 6.25 µg/mL (≈ 10.4 µM) | 3.13 µg/mL (≈ 5.19 µM) | 1.56 µg/mL (≈ 2.59 µM) | 1.56 µg/mL (≈ 2.59 µM) | 1.56 µg/mL (≈ 2.59 µM) | Nc1nc(CO/N=C(\C(=O)NC2C(=O)N3C(C(=O)[O-])=C(C[n+]4ccc(CO)cc4)CS[C@H]23)c2csc(N)n2)cs1 (stereo partly drawn) [Example 15, (Z)-7-{α-(2-amino-4-thiazolyl)-α-[(2-amino-4-thiazolyl)methoxyimino]acetamido}-3-(4-hydroxymethyl-1-pyridiniomethyl)-3-cephem-4-carboxylate]
7 | 3.13 µg/mL | 3.13 µg/mL | ≤ 0.2 µg/mL | ≤ 0.2 µg/mL | 6.25 µg/mL | 0.39 µg/mL | 12.5 µg/mL | 3.13 µg/mL | 3.13 µg/mL | 1.56 µg/mL | 0.78 µg/mL | Nc1nc(CO/N=C(\C(=O)NC2C(=O)N3C(C(=O)[O-])=C(C[n+]4ccc(C(=O)O)cc4)CSC23)c2csc(N)n2)cs1 (stereo not drawn) [Example 14, (Z)-7-{α-(2-amino-4-thiazolyl)-α-[(2-amino-4-thiazolyl)methoxyimino]acetamido}-3-(4-carboxylate-1-pyridiniomethyl)-3-cephem-4-carboxylatemono-sodium salt]
8 | 3.13 µg/mL | 3.13 µg/mL | ≤ 0.2 µg/mL | ≤ 0.2 µg/mL | 6.25 µg/mL | 1.56 µg/mL | 25 µg/mL | 3.13 µg/mL | 3.13 µg/mL | 3.13 µg/mL | 1.56 µg/mL | Nc1nc(CO/N=C(\C(=O)NC2C(=O)N3C(C(=O)[O-])=C(C[n+]4cccc(C(=O)O)c4)CSC23)c2csc(N)n2)cs1 (stereo not drawn) [Example 13, (Z)-7-{α-(2-amino-4-thiazolyl)-α-[(2-amino-4-thiazolyl)methoxyimino]acetamido}-3-(3-carboxylate-1-pyridiniomethyl)-3-cephem-4-carboxylatemono-sodium salt]
9 | ≤ 0.2 µg/mL | 3.13 µg/mL (≈ 4.8 µM) | ≤ 0.2 µg/mL | 0.78 µg/mL (≈ 1.19 µM) | 12.5 µg/mL (≈ 19.2 µM) | 1.56 µg/mL (≈ 2.39 µM) | 12.5 µg/mL (≈ 19.2 µM) | 1.56 µg/mL (≈ 2.39 µM) | 3.13 µg/mL (≈ 4.8 µM) | 1.56 µg/mL (≈ 2.39 µM) | 0.39 µg/mL (≈ 0.597 µM) | Cn1nc(O)c(=O)nc1SCC1=C(C(=O)O)N2C(=O)C(NC(=O)/C(=N\OCc3csc(N)n3)c3csc(N)n3)[C@H]2SC1 (stereo partly drawn) [Example 5, (Z)-7-{α-(2-amino-4-thiazolyl)-α-[(2-amino-4-thiazolyl)methoxyimino]acetamido}-3-{[(2,5-dihydro-6-hydroxy-2-methyl-5-oxo-as-triazine-3-yl)thio]methyl}-3-cephem-4-carboxylic acid]
